Measurements taken from patent publication US20090196912A1, “Pyridinylamines” (GPC Botech AG, priority 2004, published 2009).

Columns and labels:
RICK = RICK (Homo sapiens, UniProt O43353); test: Generic kinase assay (33P-ATP, Myelin Basic Protein); format: biochemical; conditions: 1 h; class symbol: % inhibition at 10 μM or IC50; read-out: Inhibitory effect on target RICK
Method in brief: (§1)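 Myelin basic protein was phosphorylated with [γ-33P]ATP plus unlabelled ATP (4 µM in the three-fold concentrated mix) in Tris-HCl pH 7.5, MgCl2 and DTT. Kinase was titrated to about 10% ATP turnover, and reactions ran 1 h at room temperature before EDTA stop. Incorporated 33P was captured on filter plates washed with 0.75% H3PO4 and counted by scintillation.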

RIP = target: T1, RIP (Homo sapiens, UniProt Q13546); test: as above; format: biochemical; conditions: class symbol: % inhibition at 10 μM or IC50
T1 sequence (Q13546 1-671): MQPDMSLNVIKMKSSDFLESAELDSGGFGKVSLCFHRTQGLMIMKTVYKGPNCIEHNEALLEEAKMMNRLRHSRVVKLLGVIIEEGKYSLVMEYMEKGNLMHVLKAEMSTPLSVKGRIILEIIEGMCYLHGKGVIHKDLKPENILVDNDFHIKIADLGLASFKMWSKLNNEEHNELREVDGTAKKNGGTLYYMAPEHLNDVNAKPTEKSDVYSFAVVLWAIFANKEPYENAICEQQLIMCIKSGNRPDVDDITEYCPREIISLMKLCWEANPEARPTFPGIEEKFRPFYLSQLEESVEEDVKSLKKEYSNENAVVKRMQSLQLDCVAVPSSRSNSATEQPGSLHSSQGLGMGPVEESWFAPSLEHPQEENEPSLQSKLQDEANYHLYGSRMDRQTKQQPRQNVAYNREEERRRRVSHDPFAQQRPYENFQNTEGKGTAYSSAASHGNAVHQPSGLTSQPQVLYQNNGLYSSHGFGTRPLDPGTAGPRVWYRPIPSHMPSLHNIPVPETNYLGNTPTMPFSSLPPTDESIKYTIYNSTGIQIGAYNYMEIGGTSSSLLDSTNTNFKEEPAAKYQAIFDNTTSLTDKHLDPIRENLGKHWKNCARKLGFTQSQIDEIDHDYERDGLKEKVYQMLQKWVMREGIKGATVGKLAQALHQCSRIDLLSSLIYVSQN
Method in brief: as §1

Sequence of RICK (O43353 whole entry, species assumed): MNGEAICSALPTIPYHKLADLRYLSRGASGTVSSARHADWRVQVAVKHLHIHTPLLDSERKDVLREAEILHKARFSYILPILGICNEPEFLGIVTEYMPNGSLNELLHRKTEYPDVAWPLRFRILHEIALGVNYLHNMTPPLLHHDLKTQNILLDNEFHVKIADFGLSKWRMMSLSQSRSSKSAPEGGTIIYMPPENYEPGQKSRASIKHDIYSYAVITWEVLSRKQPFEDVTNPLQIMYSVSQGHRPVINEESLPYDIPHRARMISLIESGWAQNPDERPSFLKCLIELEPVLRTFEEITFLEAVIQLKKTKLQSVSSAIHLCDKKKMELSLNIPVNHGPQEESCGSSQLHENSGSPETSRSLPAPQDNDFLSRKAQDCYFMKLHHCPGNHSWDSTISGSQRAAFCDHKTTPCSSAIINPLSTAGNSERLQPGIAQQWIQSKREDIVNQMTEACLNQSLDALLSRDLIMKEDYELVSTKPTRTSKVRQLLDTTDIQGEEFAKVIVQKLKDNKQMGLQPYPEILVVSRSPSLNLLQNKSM

**Q.** How did the inhibition at 10 µM (RICK) turn out when Clc1cccc(Nc2cncc(-c3ccncc3)c2)c1 [Compound 166, [3,4′]Bipyridinyl-5-yl-(3-chloro-phenyl)-amine] was run?
**A.** The inhibition at 10 µM was 50 to 90%.

**Q.** What about the “Inhibitory effect on target RIP” value (RIP) of the same compound?
**A.** Its value is “A (A: 50-90% inhibition at 10 μM enzyme concentration)”.
